Experimental data from patent US20260209152A1, “Substituted Hydroxystilbene Compounds and Derivatives, Synthesis and Uses Thereof” (Kynan Duke IP, LLC, priority 2019, published 2026).
Like-named read-outs stand apart in the source and are kept apart here.

How the values were obtained:
[1] = tested on: IL-17A secretion from human PBMC stimulated with antiCD3/antiCD28-coated beads; assay: PBMC IL-17 assay (assay number 1321); type: cell-based; conditions: for Max Eff.: IL-17 (1321): highest effect as percentage of control maximum effect
Description: Inhibition of IL-17A secretion from human PBMC stimulated with antiCD3/antiCD28-coated beads. LEO Pharma Open Innovation assay number 1321
The inflammatory skin disease psoriasis is characterized by cytokines IL-17A and TNFα. In the present assay, human peripheral blood mononuclear cells (PBMC) are stimulated with beads coated with antibodies against CD3 and CD28 to activate the T-cell receptor, and stimulated with IL-23 to promote T-helper17 activity. The cells are incubated for three days, then the secreted level of IL-17A is measured in the culture supernatant using AlphaLISA and the amount of living cells is measured by addition of resazurin (PrestoBlue®) to identify compounds that inhibit cell proliferation or viability. […] Compounds which inhibit IL-17A secretion may be expected to have efficacy in psoriasis.
• PBMC are isolated from fresh human buffy coats by centrifugation on Lymphoprep® following instructions from Sebmate® • Cells are spun down and resuspended in freezing medium (RPMI1640+20% FBS+5% DMSO) • Cells are frozen in aliquots of 8×10^7 cells/vial matching one 384 plate. Cells are placed in Coolcell box and placed in −80° C. freezer for one day. Vials are moved to the −150° C. freezer in a prechilled box.
• Prepare assay medium: RPMI1640+10% heat inactivated FBS and 1% pen/strep, supplemented with human IL-23, 20 ng/mL (R&D systems, cat no 1290-IL-010) • Test compounds: Prepare compound-containing source plate, i.e. titrations in DMSO to be transferred to the assay plate. • Add 70 nL compounds and controls from the source plate to the assay plate. • Thaw the cells by adding 1 vial to 20 ml warm assay medium • Centrifuge the cells down at 170 G in 10 minutes, remove the supernatant and resuspend in new medium. • Filter the cells though a 37 µm strainer. • Count the cells in the cell counter. • Beads (T Cell Activation/Expansion Kit-human, Miltenyi Biotech, cat. no. 130-091-441): Coat beads with antibodies (antiCD3 and antiCD28) according to the kit procedure. • Add the beads to the cells, one bead per cell, 2.1e+06 cells/ml. Use a pipette to mix the cells and beads carefully. • Seed the cell/bead mixture into the assay plate, 70 μL/well ([…]) • Place the plates in a humidity chamber with lid (24.5×24.5 cm box added H2O in the bottom). • Incubate plates at 37° C., 5% CO2/95% air for 3 days.
• IL-17A concentration in the supernatants is measured using an alphaLISA kit (Perkin Elmer, cat no. AL219F). • Pretest to find optima dilution of samples: Test 5 μL supernatant from control wells and run IL-17A alphaLISA assay with only 2 hours of incubation. • When data are available, remove assay plates from incubation and equilibrate to room temperature for 30 minutes. • Transfer 5 μL or corrected amounts of supernatant to a 384-proxy plate • Add 5 μL alphaLISA acceptor beads. • Incubate 1 hour at room temperature • Add 5 μL donor beads • Incubate overnight at room temperature protected from light. • Add 7 μL PrestoBlue reagent (resazurin)/well to the assay plate and incubated for 2-4 hours at 37° C./5% CO2. The fluorescence in the wells is measured (Ex615/Em 535).
IL-17A concentration in the supernatants is measured using an alphaLISA kit (Perkin Elmer, cat no. AL219F).
The capacity of the test compound to inhibit IL-17A release is normalized to the signal in the negative control wells treated with a toxic compound, Terfenadine.

[2] = Cell viability in T-cell IL-2 & IL-4 assay (assay number 1299); type: cell-based, human; conditions: human, human CD4-positive T-cells
Description: (§1) Then the level of secreted of IL-4 is measured in the culture supernatant using electrochemiluminescence (MSD kits, Meso Scale Discovery), IL-2 is measured by proximity homogenous time-resolved fluorescence (HTRF) and the amount of living cells is measured by addition of resazurin (PrestoBlue®) to allow identifying compounds that inhibit T-cell proliferation or viability.
(§2) • Remove plates from incubation and equilibrate to room temperature for 30 minutes. • IL-4 concentration in 10 μL supernatant is measured using an MSD IL-4 384-plate kit (Custom made) according to manufacturer protocol. • IL-2 concentrations in the supernatant is measured by an IL-2 HTRF kit, CisBio, cat. No 62HIL02PEH. • Add 4 μL medium to white proxi 384-well plates • Add 1 μL supernatant. • Add 4 μL mHTRF mix (each diluted 1:300 in ⅔ reconstitution buffer and ⅓ assay medium). • Spin the plates for 1 minute at 170 g • Seal and incubate overnight and read fluorescence in a plate reader • The amount of viable cells is measured by PrestoBlue® reagent • Add 15 μL diluted PrestoBlue® reagent (resazurin) corresponding to 2.5 μL Prestoblue/well to the assay plate. • Incubate overnight at 37° C./5% CO2. The fluorescence in the wells is measured (Ex615/Em 535).
(§3) The level of living cells in the wells is measured by the addition of PrestoBlue® and the conversion of Resazurin to Resorufin (fluorescent) in living cells is measured.
(§4) The effect of the test compounds on viability/proliferation is normalized to the PrestoBlue signal in the negative control wells treated with a toxic compound, Terfenadine.

[3] = tested on: human CD4-positive T-cells; assay: as above; type: cell-based; conditions: Homo sapiens, CD4 positive
Description: as §1, §2, §3, §4

[4] = tested on: primary human keratinocytes; assay: Cell viability in keratinocyte IL-8 assay (assay number 1244); type: cell-based; conditions: Homo sapiens
From the text: (§5) • 1. Determination of inhibition of CCL2 release from IL-4, IL-13, IL-22 and IFN-γ-stimulated primary human keratinocytes [assay number 1280] and determination of the effect on cell viability [assay number 1243]. • 2. Determination of inhibition of IL-8 release from IL-17A and TNFα-induced primary human keratinocytes [assay number 1250] and determination of the effect on cell viability [assay number 1244]. • 3. Determination of inhibition of IL-17A secretion from human PBMC stimulated with antiCD3/antiCD28-coated beads [assay number 1321] and determination of the effect on cell viability [assay number 1322]. • 4. Determination of inhibition of IL-4 and IL-2 secretion from human CD4-positive T-cells stimulated with antiCD2/antiCD3/antiCD28-coated beads [assay number 1297, 1298] and determination of the effect on cell viability [assay number 1299].

[5] = as above; type: cell-based, human; conditions: human, primary human keratinocytes induced with IL-17A and TNFα
From the text: as §5

[6] = inhibition of IL-17A secretion, human PBMC, read-out: Abs EC50: IL-17 (1321)
[7] = maximum reduction of cell viability in T-cell IL-2 & IL-4 assay, read-out: Max Eff.: Viab (1299)
[8] = cell viability in T-cell IL-2 & IL-4 assay, read-out: Abs EC50: Viab (1299)
[9] = Keratinocyte, cell viability in IL-8 assay, read-out: Abs EC50: Viab (1244)
[10] = maximum reduction of cell viability in IL-8 assay, read-out: Max Eff.: Viab (1244)
[11] = T-cell IL-2 & IL-4 assay, read-out: maximum reduction of cell viability
[12] = T-cell IL-2 & IL-4 assay, read-out: EC50, cell viability
[13] = keratinocyte IL-8 assay, read-out: EC50, cell viability
[14] = keratinocyte IL-8 assay, read-out: maximum reduction of cell viability

| SMILES | Max Eff.: IL-17 (1321) [1] | EC50 [1, 6] | cytotoxicity [2, 7] | EC50 [3, 8] | EC50 [4, 9] | cytotoxicity [5, 10] | reduction of IL-17A release, in words [1] | cytotoxicity [2, 11] | EC50 [3, 12] | EC50 [4, 13] | cytotoxicity [5, 14] | EC50 ([1]; Homo sapiens, PBMC, read-out: EC50, inhibition of IL-17A secretion) | Emax ([1]; Homo sapiens, PBMC, read-out: maximum efficacy, IL-17A secretion) |
| --- | --- | --- | --- | --- | --- | --- | --- | --- | --- | --- | --- | --- | --- |
| COc1cc(/C=C/c2cc(O)cc(OC)c2CC=C(C)C)ccc1O [Compound 1, (E)-3-(4-hydroxy-3-methoxystyryl)-5-methoxy-4-(3-methylbut-2-en-1-yl)phenol] | 54% | 4430 nM | 35% | 5000 nM | 90 nM | 92% | – | – | – | – | – | – | – |
| CCOc1cc(O)cc(/C=C/c2ccc(O)c(OC)c2)c1CC=C(C)C [Compound 8, (E)-3-Ethoxy-5-(4-hydroxy-3-methoxystyryl)-4-(3-methylbut-2-en-1-yl)phenol] | 69% | 1550 nM | 46% | 5000 nM | 32 nM | 101% | – | – | – | – | – | – | – |
| CCOc1cc(O)cc(/C=C/c2ccc(O)c(O)c2)c1CC=C(C)C [Compound 20, (E)-4-(3-Ethoxy-5-hydroxy-2-(3-methylbut-2-en-1-yl)styryl)benzene-1,2-diol] | 85% | 1650 nM | 15% | 5000 nM | 221 nM | 76% | – | – | – | – | – | – | – |
| COc1cc(/C=C/c2cc(O)cc(OC)c2CC=C(C)C)ccc1NC=O [Compound 27, (E)-N-(4-(5-hydroxy-3-methoxy-2-(3-methylbut-2-en-1-yl)styryl)-2-methoxyphenyl)formamide] | 65% | 2120 nM | – | 4350 nM | 32 nM | – | significantly less effective | 52% | 4350 nM | 32 nM | 83% | – | – |
| CCOc1cc(O)cc(/C=C/c2ccc(NC=O)c(OC)c2)c1CC=C(C)C [Compound 28, (E)-N-(4-(3-Ethoxy-5-hydroxy-2-(3-methylbut-2-en-1-yl)styryl)-2-methoxyphenyl)formamide] | 73% | 526 nM | – | 2360 nM | 35 nM | – | low potency reduction of IL-17A release | 60% | 2360 nM | 35 nM | 81% | 526 nM | 73% |
| COc1cc(/C=C/c2cc(O)cc(OC)c2CC=C(C)C)ccc1NC(=O)CN [Compound 31, (E)-2-amino-N-(4-(5-hydroxy-3-methoxy-2-(3-methylbut-2-en-1-yl)styryl)-2-methoxyphenyl)acetamide] | 53% | 4870 nM | 19% | 5000 nM | 416 nM | 100% | – | – | – | – | – | – | – |
| CCOc1cc(O)cc(/C=C/c2ccc(NC(=O)C(=O)O)c(OC)c2)c1CC=C(C)C [Compound 35, (E)-2-((4-(3-Ethoxy-5-hydroxy-2-(3-methylbut-2-en-1-yl)styryl)-2-methoxyphenyl)amino)-2-oxoacetic acid] | 19% | 5000 nM | 7% | 5000 nM | 5000 nM | 72% | – | – | – | – | – | – | – |
